Assays:
[1] = target: T1, Sodium- and chloride-dependent glycine transporter 1 (Homo sapiens, UniProt P48067); experiment: Radioligand Binding Assay: Radioligand binding to human GlyT1c transporter-expressing membranes was carried out as described in Mezler et al., Molecular Pharmacology 74:1705-1715, 2008.More specifically, [3H]-(R)-NPTS radioligand binding to human GlyT1c transporter-expressing membranes was measured in duplicate in a total volume of 200 ul in 96-well plates. To 100 ul of membrane suspension (yielding a final membrane protein concentration of 50 ug/ml) in assay buffer (120 mM NaCl, 2 mM KCl, 10 mM Hepes, 1 mM MgCl2, 1 mM CaCl2, pH 7.5) 80 ul of [3H]-(R)-NPTS (0.5 nM final) were added in assay buffer. For competition experiments 10 ul of buffer or unlabeled compound solution obtained from dilution series of test compounds in DMSO followed. An intermediate 1:10 dilution in assay buffer yielded a final DMSO concentration of 1%. Non-specific binding was determined in the presence of 10 uM Org24598 (or its racemate Org24461) for [3H]-(R)-NPTS.
T1 sequence (P48067 whole entry): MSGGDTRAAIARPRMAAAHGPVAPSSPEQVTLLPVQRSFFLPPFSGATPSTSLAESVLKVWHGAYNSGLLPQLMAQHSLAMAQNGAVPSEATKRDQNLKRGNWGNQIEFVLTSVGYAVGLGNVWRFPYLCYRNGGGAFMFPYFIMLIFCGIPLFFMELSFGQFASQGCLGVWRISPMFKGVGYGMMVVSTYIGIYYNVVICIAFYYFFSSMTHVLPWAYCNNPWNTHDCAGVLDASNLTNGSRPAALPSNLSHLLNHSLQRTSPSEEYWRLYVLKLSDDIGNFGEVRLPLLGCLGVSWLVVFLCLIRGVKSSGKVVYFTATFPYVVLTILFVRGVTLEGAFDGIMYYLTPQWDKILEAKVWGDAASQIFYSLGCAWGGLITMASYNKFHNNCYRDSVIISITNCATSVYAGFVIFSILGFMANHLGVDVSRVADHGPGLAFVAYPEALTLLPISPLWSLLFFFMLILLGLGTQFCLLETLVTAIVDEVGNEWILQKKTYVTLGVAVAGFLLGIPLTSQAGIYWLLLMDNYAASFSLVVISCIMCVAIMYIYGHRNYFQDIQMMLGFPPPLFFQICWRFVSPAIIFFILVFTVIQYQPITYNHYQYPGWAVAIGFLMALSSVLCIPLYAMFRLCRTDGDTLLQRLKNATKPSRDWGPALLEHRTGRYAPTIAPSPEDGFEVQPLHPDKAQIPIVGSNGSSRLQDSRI

[2] = target: T1, Sodium- and chloride-dependent glycine transporter 1; experiment: Glycine Uptake Assay: [3H]-Glycine uptake into recombinant CHO cells expressing human GlyT1: Human GlyT1c expressing recombinant hGlyT1c_5_CHO cells were plated at 20,000 cells per well in 96 well Cytostar-T scintillation microplates (Amersham Biosciences) and cultured to sub-confluency for 24 h. For glycine uptake assays the culture medium was aspirated and the cells were washed once with 100 ul HBSS (Gibco BRL, #14025-050) with 5 mM L-Alanine (Merck #1007). 80 ul HBSS buffer were added, followed by 10 ul inhibitor or vehicle (10% DMSO) and 10 ul [3H]-glycine (TRK71, Amersham Biosciences) to a final concentration of 200 nM for initiation of glycine uptake. The plates were placed in a Wallac Microbeta (PerkinElmer) and continuously counted by solid phase scintillation spectrometry during up to 3 hours. Nonspecific uptake was determined in the presence of 10 uM Org2 4598. IC50 calculations were made by four-parametric logistic nonlinear regressi on analysis (GraphPad Prism).; format: cell-based

Compound	Ki [1] [µM]	IC50 [2] [µM]
CCCS(=O)(=O)NCCOc1ccc2c(c1)C(C1(c3cccc(F)c3)CCC1)NCC2 (stereo not given)	< 0.1	< 0.1
Cc1oncc1S(=O)(=O)NCCOc1ccc2c(c1)C(C1(c3ccc(Cl)cc3)CCC1)NCC2 (stereo not given)	< 10	–
O=C1c2ccccc2C(=O)N1CCS(=O)(=O)NCCOc1ccc2c(c1)C(C1(c3ccc(Cl)cc3)CCC1)NCC2 (stereo not given)	< 10	< 100

Source: ChEMBL document CHEMBL3638939, “Tetrahydroisoquinolines, pharmaceutical compositions containing them, and their use in therapy” (2014)
